Test system: Boophilus microplus, Biarra strain (resistant)
Test: In-vitro test for ovicidal effect on ticks (Biarra strain)
Experimental: In-vitro Test for Ovicidal Effect on Ticks
The emulsion concentrate so obtained is diluted with water to the application concentration desired in each case.
After immersion of, in each case, 10 female specimens of the various strains of ticks, the individual ticks are transferred to plastic dishes, the bottom of each of which is covered with a disc of filter paper.

[1] = Table 1b, concentration giving 100% inhibition
[2] = Table 1b, concentration giving >50% inhibition
[3] = Table 2, concentration giving 100% inhibition
[4] = Table 2, concentration giving >50% inhibition

SMILES	Ovicidal effect: 100% inhibition with the stated concentration of active compound [1]	Ovicidal effect: >50% inhibition with the stated concentration of active compound [2]	Ovicidal effect: 100% inhibition with the stated concentration of active compound [3]	Ovicidal effect: >50% inhibition with the stated concentration of active compound [4]
CCN1CCCC1=Nc1ccc(Cl)cc1Cl [Compound 21]	0.1 % by weight	0.01 % by weight		
CCN1CCCC1=Nc1cc(Cl)c(Cl)cc1Cl [Compound 31]	0.3 % by weight	0.1 % by weight		
CCN1C(=Nc2ccc(Cl)c(Cl)c2)CCC1C (stereo not drawn) [Compound 51]	0.1 % by weight	0.03 % by weight		
CCCN1CCCC1=Nc1ccc(Cl)c(Cl)c1 [Compound 61]	0.03 % by weight	0.01 % by weight		
CCN1CCCC1=Nc1ccc(Cl)c(Cl)c1 [Compound 81]	0.3 % by weight	0.1 % by weight		
CCCN1CCCC1=Nc1ccc(Cl)cc1Cl [Compound 91]	0.03 % by weight	0.01 % by weight		
Cc1cc(Cl)ccc1N=C1CCCN1CC(C)C [Compound 101]	0.1 % by weight	0.05 % by weight		
CC(C)CN1CCCC1=Nc1ccc(Cl)c(Cl)c1 [Compound 111]	0.1 % by weight	0.03 % by weight		
CC(C)N1CCCC1=Nc1ccc(Cl)c(Cl)c1 [Compound 121]	0.1 % by weight	0.03 % by weight		
CN1CCCC1=Nc1cc(Cl)c(Cl)cc1Cl [Compound 131]	0.03 % by weight	0.01 % by weight		
Cc1cc(Cl)ccc1N=C1CCCN1C [Compound 141]	0.3 % by weight	0.1 % by weight		
CCCCN1CCCC1=Nc1ccc(Cl)cc1C [Compound 151]	0.3 % by weight	0.1 % by weight		
CCCCN1CCCC1=Nc1ccc(Cl)cc1Cl [Compound 161]	0.03 % by weight	0.01 % by weight		
CC(C)CN1CCCC1=Nc1ccc(Cl)cc1Cl [Compound 171]	0.1 % by weight	0.03 % by weight		
CC(C)(C)N1CCCC1=Nc1ccc(Cl)cc1Cl [Compound 181]	0.3 % by weight	0.1 % by weight		
CN1CCCC1=Nc1ccc(Cl)c(Cl)c1 [Compound 191]	0.3 % by weight	0.1 % by weight		
CC1CCC(=Nc2ccc(Cl)c(Cl)c2)N1C (stereo not drawn) [Compound 201]	0.3 % by weight	0.1 % by weight		
CC(C)N1CCCC1=Nc1ccc(Cl)cc1Cl [Compound 221]	0.1 % by weight	0.03 % by weight		
Cc1cc(Cl)ccc1N=C1CCCN1C(C)(C)C [Compound 231]	0.3 % by weight	0.1 % by weight		
CN1CCCC1=Nc1ccc(Br)cc1Br [Compound 251]			0.1 % by weight	0.03 % by weight
CCN1CCCC1=Nc1ccc(Br)cc1Br [Compound 261]			0.1 % by weight	0.05 % by weight

SMILES	Ovicidal effect: 100% inhibition with the stated concentration of active compound [1]	Ovicidal effect: >50% inhibition with the stated concentration of active compound [2]	Ovicidal effect: 100% inhibition with the stated concentration of active compound [3]	Ovicidal effect: >50% inhibition with the stated concentration of active compound [4]
CCCN1CCCC1=Nc1ccc(Br)cc1Br [Compound 271]			0.3 % by weight	0.2 % by weight
C=CCN1CCCC1=Nc1ccc(Br)cc1Br [Compound 281]			0.1 % by weight	0.03 % by weight
CCCCN1CCCC1=Nc1ccc(Br)cc1Br [Compound 291]			0.3 % by weight	0.1 % by weight
CN1CCCC1=Nc1ccc(Br)cc1Cl [Compound 301]			0.1 % by weight	0.05 % by weight
CCN1CCCC1=Nc1ccc(Br)cc1Cl [Compound 311]			0.1 % by weight	0.08 % by weight
CCCN1CCCC1=Nc1ccc(Br)cc1Cl [Compound 321]			0.3 % by weight	0.1 % by weight
CCCCN1CCCC1=Nc1ccc(Br)cc1Cl [Compound 331]			0.3 % by weight	0.1 % by weight
CN1CCCC1=Nc1ccc(Cl)cc1Br [Compound 341]			0.1 % by weight	0.03 % by weight
CCN1CCCC1=Nc1ccc(Cl)cc1Br [Compound 351]			0.1 % by weight	0.03 % by weight
CCCN1CCCC1=Nc1ccc(Cl)cc1Br [Compound 361]			0.1 % by weight	0.03 % by weight
CCCCN1CCCC1=Nc1ccc(Cl)cc1Br [Compound 371]			0.03 % by weight	0.01 % by weight
CN1CCCC1=Nc1ccc(F)cc1Br [Compound 381]			0.3 % by weight	0.1 % by weight
CCCN1CCCC1=Nc1ccc(F)cc1Br [Compound 391]			0.03 % by weight	0.02 % by weight
CCN1CCCC1=Nc1ccc(Br)c(Cl)c1 [Compound 401]			0.1 % by weight	0.08 % by weight
C=CCN1CCCC1=Nc1ccc(Br)c(Cl)c1 [Compound 411]			0.3 % by weight	0.1 % by weight
CCCCN1CCCC1=Nc1ccc(Br)c(Cl)c1 [Compound 421]			0.3 % by weight	0.2 % by weight
C=CCN1CCCC1=Nc1ccc(Br)cc1C [Compound 431]			0.1 % by weight	0.03 % by weight
C=CCN1CCCC1=Nc1ccc(Br)cc1CC [Compound 441]			0.3 % by weight	0.1 % by weight
C=CCN1CCCC1=Nc1ccc(Cl)cc1Br [Compound 451]			0.1 % by weight	0.01 % by weight
CCCCN1CCCC1=Nc1ccc(Br)cc1C [Compound 461]			0.3 % by weight	0.2 % by weight
C=CCN1CCCC1=Nc1ccc(F)c(Br)c1 [Compound 471]			0.1 % by weight	0.08 % by weight

Source: patent US4077981A, “Certain 1-alkyl-2-dichlorophenyliminopyrrolidines” (Bayer Aktiengesellschaft, priority 1968, dated 1978)
